± gives the expanded uncertainty stated by the source.
Key:
[1] = Liquid; for mass density: 94.9 kPa, Vibrating tube method; for vapor or sublimation pressure: Ebulliometric method (Recirculating still)
[2] = refractive index (Na D-line) (dimensionless); conditions: 94.9 kPa, Liquid, (Schmidt +Haensch) refractometer (Model DSR lambda)
[3] = xn = mol fraction of the nth substance listed; conditions: 94.9 kPa, Liquid, Vibrating tube method, x2 = 0
[4] = refractive index (Na D-line) (dimensionless); xn = mol fraction of the nth substance listed; conditions: 94.9 kPa, Liquid, (Schmidt +Haensch) refractometer (Model DSR lambda), x2 = 0

CCCCCCCCCCO [decan-1-ol]
Conditions | mass density, [1] [kg/m3] | refractive index, [2] | vapor or sublimation pressure, [1] [kPa]
293.15 K | 830.01 ± 4 | 1.43711 ± 0.0024 | –
303.15 K | 823.54 ± 4 | 1.43332 ± 0.0024 | –
313.15 K | 816.13 ± 4 | 1.42949 ± 0.0024 | –
323.15 K | 808.84 ± 4 | 1.42564 ± 0.0024 | –
333.15 K | 801.43 ± 4 | 1.42189 ± 0.0024 | –
436.56 K | – | – | 13.32 ± 1
469.52 K | – | – | 39.99 ± 1
487.85 K | – | – | 66.66 ± 1
501.05 K | – | – | 94.9 ± 1

CCCCCCCCCCO [decan-1-ol] + C1COCCN1
Conditions | mass density, 293.15 K [kg/m3] | mass density, 303.15 K [kg/m3] | mass density, 313.15 K [kg/m3] | mass density, 323.15 K [kg/m3] | mass density, 333.15 K [kg/m3] | refractive index, 293.15 K | refractive index, 303.15 K | refractive index, 313.15 K | refractive index, 323.15 K | refractive index, 333.15 K
[3] | 830.01 ± 4 | 823.54 ± 4 | 816.13 ± 4 | 808.84 ± 4 | 801.43 ± 4 | – | – | – | – | –
[4] | – | – | – | – | – | 1.43711 ± 0.0024 | 1.43332 ± 0.0024 | 1.42949 ± 0.0024 | 1.42564 ± 0.0024 | 1.42189 ± 0.0024

CCCCCCCCO [octan-1-ol]
Conditions | mass density, [1] [kg/m3] | refractive index, [2]
293.15 K | 825.57 ± 4 | 1.4295 ± 0.0024
298.15 K | 821.9 ± 4 | 1.42748 ± 0.0024
303.15 K | 818.08 ± 4 | 1.42561 ± 0.0024
308.15 K | 814.31 ± 4 | 1.42369 ± 0.0024
313.15 K | 811.09 ± 4 | 1.42169 ± 0.0024
318.15 K | 807.7 ± 4 | 1.41973 ± 0.0024
323.15 K | 804.05 ± 4 | 1.41783 ± 0.0024
333.15 K | 796.88 ± 4 | 1.41407 ± 0.0024

C1COCCN1 [tetrahydro-1,4-oxazine]
Conditions | mass density, [1] [kg/m3] | refractive index, [2] | vapor or sublimation pressure, [1] [kPa]
293.15 K | 999.54 ± 4 | 1.45453 ± 0.0024 | –
303.15 K | 989.89 ± 4 | 1.45031 ± 0.0024 | –
313.15 K | 979.82 ± 4 | 1.44574 ± 0.0024 | –
323.15 K | 969.78 ± 4 | 1.44113 ± 0.0024 | –
333.15 K | 959.74 ± 4 | 1.43562 ± 0.0024 | –
343.91 K | – | – | 13.32 ± 1
372.25 K | – | – | 39.99 ± 1
387.57 K | – | – | 66.66 ± 1
398.92 K | – | – | 94.9 ± 1

Cc1ccccc1 [toluene]
Conditions | mass density, [1] [kg/m3] | refractive index, [2]
293.15 K | 866.68 ± 4 | 1.49666 ± 0.0024
298.15 K | 861.74 ± 4 | 1.49386 ± 0.0024
303.15 K | 857.39 ± 4 | 1.49193 ± 0.0024
308.15 K | 851.69 ± 4 | 1.48821 ± 0.0024
313.15 K | 847.82 ± 4 | 1.48536 ± 0.0024
318.15 K | 842.88 ± 4 | 1.48249 ± 0.0024
323.15 K | 838.42 ± 4 | 1.47968 ± 0.0024
333.15 K | 828.94 ± 4 | 1.47401 ± 0.0024

Cc1ccccc1 [toluene] + CCCCCCCCO
Conditions | mass density, [3] [kg/m3] | refractive index, [4]
293.15 K | 866.68 ± 4 | 1.49666 ± 0.0024
298.15 K | 861.74 ± 4 | 1.49386 ± 0.0024
303.15 K | 857.39 ± 4 | 1.49193 ± 0.0024
308.15 K | 851.69 ± 4 | 1.48821 ± 0.0024
313.15 K | 847.82 ± 4 | 1.48536 ± 0.0024
318.15 K | 842.88 ± 4 | 1.48249 ± 0.0024
323.15 K | 838.42 ± 4 | 1.47968 ± 0.0024
333.15 K | 828.94 ± 4 | 1.47401 ± 0.0024
